Tests used:
[1] = Determination of reduction potential by cyclic voltammetry; format: physicochemical; conditions: for Epc(V): cyclic voltammetry in dimethylformamide at Hg, vs. Ag/AgNO3; for Reduction process: cyclic voltammetry in dimethylformamide
Experimental: The reduction potentials of misonidazole, ^99TcO(PnAO), and ^99Tc-hypoxia-localizing tracers were determined by cyclic voltammetry (C.V.) in dimethylformamide. […] The reference electrode was Ag/AgNO3 with an acetonitrile filling solution saturated with LiCl. The counter electrode was a platinum wire. Voltamograms at mercury were determined at scan rates of 50, 100, 200, and 500 mV/s.
The solutions used in C.V. studies contained test sample at a concentration of 0.2-0.7 mM and tetrabutylammonium tetrafluoroborate (Bu4NBF4) or tetrabutylammonium hexafluorophosphate (Bu4NPF6) supporting electrolyte at a concentration of 0.1M. The solution was deoxygenated by bubbling solvent-saturated nitrogen or argon through the solution for 15 minutes. Variations in the reference potential were accounted for by determining the C.V. of a Ru(acac)3 standard on a daily basis.

[2] = tested on: hypoxic ischemic border zone; assay: Rabbit focal myocardial ischemia model (LAD occlusion), double-label autoradiography; format: in vivo; conditions: permanent LAD coronary artery ligation, intravenous tracer, heart sections
Experimental: A model of focal myocardial ischemia in the rabbit was developed, using permanent ligation of the left anterior descending (LAD) coronary artery. The model consisted of two studies. In the first, relative regional myocardial blood flow (MBF) and relative regional myocardial rate of glucose metabolism (MMRgl) were determined by autoradiography using a double-label study with the flow tracer ^99mTcCl(CDO)3MeB (R. K. Narra et al., J. Nucl. Med., 1989; 30:1830-1837) and ^14C-deoxy-glucose for MMRgl (L. Sokoloff et al., J. Neurochem., 1977, 28, 897-916). ^14C-deoxyglucose and the ^99mTc-hypoxia-localizing tracer were administered to a second group of rabbits with LAD coronary artery occlusion.
After the surgical preparation and 20 minutes of LAD occlusion, ^14C-deoxyglucose (130-150 μCi) was injected as an intravenous bolus, and timed arterial blood samples were obtained. Twenty-five minutes later, ^99mTcCl(CDO)3MeB (10-12 mCi) was administered intravenously. Five minutes later, the rabbits were sacrificed by intravenous injection of Nembutal and potassium chloride. The heart was excised, frozen in liquid Freon-22, and 20 μm coronal sections obtained with a Microtome. Autoradiographs were obtained on all sections. For the first exposure (˜14 hours duration) of Kodak XAR film, extra heavy duty aluminum foil was interposed between the tissue and film to block completely the radiation emanating from ^14C to obtain the MBF information derived from ^99mTcCl(CDO)3MeB alone. After three days (to allow for decay of ^99mTc); a second autoradiograph was obtained without foil. The second exposure lasted 6-8 days, and,provided an image of the regional distribution of ^14C-deoxyglucose.
In a separate experiment using the rabbit LAD occlusion model and the double-label autoradiography procedures described above, the performance of the ^99mTc complex of the ligand described in Example 1 was compared to that of ^14C-misonidazole.

[3] = tested on: Calcium-tolerant ventricular myocytes; assay: Isolated cardiac myocyte studies, retention of radioactivity; format: cell-based, male Sprague Dawley rats; conditions: isolated myocytes; for Anoxia/normoxia ratio: % in Cell Pellet; for % in Cell Pellet, Anoxia / % in Cell Pellet, Normoxia: several Tc-99m complexes
Excerpt: Calcium-tolerant ventricular myocytes were isolated from hearts of male Sprague Dawley rats (200 g) according to the procedure of Wittenberg and Robinson (B. A. Wittenberg and T. F. Robinson, Cell Tissue Res., 216: 231, 1981) with modifications described previously (W. Rumsey, C. Schlosser, E. M. Nuutinen, M. Robiolio and D. F. Wilson, J. Biol. Chem., 265 (26): 15392, 1990). Cells were used immediately following morphological analysis (using a hemocytometer) of viability and were maintained at 37° C. during the experiments. The number of quiescent, rod shaped cells ranged from 70-90% within a total population of 5-9×10^6 cells.
The isolated myocytes were maintained in either a normoxic, hypoxic or anoxic state. Hypoxia was induced by providing an atmosphere of argon atop of the cells and sealing the flask during the incubation period. Glucose oxidase plus catalase (5/5 mg) was added to argon treated cells to provide anoxia. Cells were suspended (6.5-7.5×10^4 cells/ml) in isolation media and aliquots were added to incubation vials maintained at 37° C.
After incubation with a test compound, myocytes were deproteinated with 1% ice-cold perchloric acid and centrifuged at 12,000 rpm for 30 sec. The supernatent was separated from the pellet and each counted using a LKB 1282 gamma counter. Alternatively, myocytes were separated from the suspending media by passing the cells through 99% dibutyl phthalate by centrifugation at 12,000 rpm for 30 sec. The three phases were separated and counted as described above. Results for the Tc-99m complex of the compound in Example 1 are given below:
Values represent means ±S.E.M. for the number of experiments noted in the parentheses. The values are the percent of total radioactivity represented by each case. PCA pellet=perchloric acid-precipitated pellet which represents the activity associated with proteins/membranes. Cell pellet=whole cells passed through a layer of dibutyl phthalate (oil).
Several Tc-99m complexes were examined in isolated myocytes using the protocol described above. The percentage of activity retained in the cell pellet was determined under anoxic and normoxic states.

melting point [°C]	Epc(V) ([1]; first or only reduction listed)	Reduction process ([1]; first or only reduction listed)	Molecule	also measured
185 to 187			CC(=NO)C(C)(C)NCC(CNC(C)(C)C(C)=NO)CC(O)Cn1ccnc1[N+](=O)[O-] (stereo not drawn) [Example 26, 3,3,9,9-Tetramethyl-6-[2-hydroxy-3-(2-nitro-1H-imidazol-1-yl)propyl]-4,8-diazaundecane-2,10-dione dioxime]	
	−1.49	reversible	COCC(O)Cn1ccnc1[N+](=O)[O-] (stereo not drawn) [Misonidazole, reference compound]	
			^14C-misonidazole	regional myocardial distribution pattern (autoradiography) [2]: high uptake in the hypoxic border zone of the ischemic territory and low uptake in normoxic regions
	−1.53	reversible	CC1=[N+](O)[99Tc-]23(=[O])[N](CCC[N]2C1(C)C)C(C)(C)C(CCn1ccnc1[N+](=O)[O-])=[N+]3[O-] [Example 19, [^99Tc]Oxo[[4,4,10,10-tetramethyl-1-(2-nitro-1H-imidazo-1-yl)-5,9-diazadodecane-3,11-dione dioximato](3-)-N,N′,N″,N′″]technetium(V)]	Epc(V) ([1]; second reduction listed): −2.07 V; Reduction process ([1]; second reduction listed): irreversible
	−1.51	reversible	CC(=NO)C(C)(C)NCC(O)CNC(C)(C)C(Cn1ccnc1[N+](=O)[O-])=NO (stereo not drawn) [Example 4, 6-Hydroxy-3,3,9,9-tetramethyl-1-(2-nitro-1H-imidazo-1-yl)-4,8-diazaundecane-2,10-dione dioxime]	
	−1.54	reversible	CC(=NO)C(C)(C)NCCCNC(C)(C)C(CCn1ccnc1[N+](=O)[O-])=NO [Example 3, 4,4,10,10-Tetramethyl-1-(2-nitro-1H-imidazo-1-yl)-5,9-diazadodecane-3,11-dione dioxime]	
134 to 135			CC(=NO)C(C)(C)NCCCNC(C)(C)C(COCC(O)Cn1ccnc1[N+](=O)[O-])=NO (stereo not drawn) [Example 31, 3,3,9,9-Tetramethyl-1-[2-hydroxy-3-(2-nitro-1H-imidazol-1-yl)propoxy]-4,8-diazaundecane-2,10-dione dioxime]	
	−1.52	reversible	CC(=NO)C(C)(C)NCC(CNC(C)(C)C(C)=NO)NC(=O)Cn1ccnc1[N+](=O)[O-] (stereo not drawn) [Example 5, 3,3,9,9-Tetramethyl-6-((2-nitro-1H-imidazo-1-yl)acetamido)-4,8-diazaundecane-2,10-dione dioxime]	
167 to 168			CC(=NO)C(C)(C)NCC(C)CNC(C)(C)C(Cn1ccnc1[N+](=O)[O-])=NO (stereo not drawn) [Example 23, 3,3,6,9,9-Pentamethyl-1-(2-nitro-1H-imidazol-1-yl)-4,8-diazaundecane-2,10-dione dioxime]	
	−1.81	reversible	CC1=[N+](O)[99Tc-]23(=[O])[N](CCC[N]2C1(C)C)C(C)(C)C(Cn1cnc([N+](=O)[O-])c1)=[N+]3[O-] [Example 6a, [^99Tc]Oxo[[3,3,9,9-tetramethyl-1-(4-nitro-1H-imidazo-1-yl)-4,8-diazaundecane-2,10-dione dioximato]-(3-)-N,N′,N″,N′″]technetium(V)]	Epc(V) ([1]; second reduction listed): −2.02 V; Reduction process ([1]; second reduction listed): irreversible
			CC(=NO)C(C)(C)NCC(C)CNC(C)(C)C(C)=NO (stereo not drawn) [^99mTc Complex of 6-methyl-PnAO, ^99mTc-complexes of 6-methyl PnAO (3,3,6,9,9-pentamethyl-4,8-diazaundecane-2,10-dione dioxime), metal not drawn, reference compound]	Anoxia/normoxia ratio [3]: 1.3; % in Cell Pellet, Anoxia [3]: 22.7 (n = 1) %; % in Cell Pellet, Normoxia [3]: 17.4 (n = 1) %; regional myocardial distribution pattern (autoradiography) [2]: no differentiation of ischemic and non-ischemic regions
140 to 141			CC(=NO)C(C)(C)NCCCNC(C)(C)C(Cn1cc(C)nc1[N+](=O)[O-])=NO [Example 27, 3,3,9,9-Tetramethyl-1-(4-methyl-2-nitro-1H-imidazol-1-yl)-4,8-diazaundecane-2,10-dione dioxime]	
90 to 92			CC(=NO)C(C)(C)NCC(F)(F)CNC(C)(C)C(CCn1ccnc1[N+](=O)[O-])=NO [Example 30, 6,6-Difluoro-3,3,9,9-tetramethyl-12-(2-nitro-1H-imidazol-1-yl)-4,8-diazadodecane-2,10-dione dioxime]	
	−1.81	reversible	CC(=NO)C(C)(C)NCCCNC(C)(C)C(Cn1cnc([N+](=O)[O-])c1)=NO [Example 2, 3,3,9,9-Tetramethyl-1-(4-nitro-1H-imidazo-1-yl)-4,8-diazaundecane-2,10-dione dioxime]	
	−1.62	reversible	Cc1ncc([N+](=O)[O-])n1CCO [Metronidazole, reference compound]	
137 to 139			COC(=O)CCC(=NO)C(C)(C)NCCCNC(C)(C)C(Cn1ccnc1[N+](=O)[O-])=NO [Example 24, 12-Methoxycarbonyl-3,3,9,9-tetramethyl-1-(2-nitro-1H-imidazol-1-yl)-4,8-diazadodecane-2,10-dione dioxime]	
150 to 152			CC(=NO)C(C)(C)NCCCNC(C)(C)C(Cn1c(C)cnc1[N+](=O)[O-])=NO [Example 28, 3,3,9,9-Tetramethyl-1-(5-methyl-2-nitro-1H-imidazol-1-yl)-4,8-diazaundecane-2,10-dione dioxime]	
62 to 64			CC(=NO)C(C)(C)NCC(O)CNC(C)(C)C(CCn1ccnc1[N+](=O)[O-])=NO (stereo not drawn) [Example 32, 6-Hydroxy-3,3,9,9-tetramethyl-12-(2-nitro-1H-imidazol-1-yl)-4,8-diazadodecane-2,10-dione dioxime]	
122 to 123			CCOCC(=NO)C(C)(C)NCCCNC(C)(C)C(Cn1ccnc1[N+](=O)[O-])=NO [Example 25, 11-Ethoxy-3,3,9,9-tetramethyl-1-(2-nitro-1H-imidazol-1-yl)-4,8-diazaundecane-2,10-dione dioxime]	
			CC(=NO)C(C)(C)NCC(O)CNC(C)(C)C(C)=NO (stereo not drawn) [^99mTc Complex of 6-hydroxy-PnAO, 6-hydroxy PnAO(6-hydroxy-3,3,9,9-tetramethyl-4,8-diazaundecane-2,10-dione dioxime), metal not drawn, reference compound]	Anoxia/normoxia ratio [3]: 1.3; % in Cell Pellet, Anoxia [3]: 9.2 (n = 1) %; % in Cell Pellet, Normoxia [3]: 7.1 (n = 1) %

Molecule	melting point [°C]	Epc(V) ([1]; first or only reduction listed)	Reduction process ([1]; first or only reduction listed)	also measured
CC(=NO)C(C)(C)NCCCNC(C)(C)C(Cn1ccnc1[N+](=O)[O-])=NO [Example 1, 3,3,9,9-Tetramethyl-1-(2-nitro-1H-imidazo-1-yl)-4,8-diazaundecane-2,10-dione dioxime]		−1.52	reversible	

— patent US6958141B2, “Rhenium and technetium complexes containing a hypoxia-localizing moiety” (Bracco International B.V., priority 1991, dated 2005)
